Source: US20240358845A1 (priority 2021, published 2024)
Where two headings read alike, the source gives them in different places.

Key:
dystrophin = details: mouse, in vivo
Murine DMD exon 23 = details: mouse, in vivo
creatine kinase = details: mouse, in vivo
Human CD33 exon 2 [1] = type: cell-based
[2] = tested on: exon 5 of non-human primate CD33; test: CD33 exon 5 skipping (RT-PCR) in monkey PBMC after intravenous infusion; type: in vivo; details: NHP; IV infusion 2 mpk (d0) and 5 mpk (d3)
Experimental: NHP Study design. To explore the tolerability of EEV-PMO on non-human primate (NHP), two CPP-PMO constructs as well as PMO itself are dosed in staggered fashion at 2 mpk and 5 mpk through intravenous infusion on d0 and d3, respectively. […] The CPP used was CPP12, which has a cyclic amino acid sequence of FfΦRrRr. PBMCs (peripheral blood mononuclear cells) were isolated at 1 day (d4) and 7 days […] post 5 mpk injection to detect splicing correction. Blood, serum and urine samples were collected at 1 day and or 7 days post each injection for hematology, clinical chemistry, coagulation, urinalysis, cytokine and histamine analysis.
Detection of exon exclusion by RT-PCR. Although human and non-human primates share high sequence homology of CD33 gene, the 5′-UTR and splicing pattern is different. The sequence coding for the IgV domain of CD33 is located in exon 2 for human and located in exon 5 for non-human primate CD33 gene. Therefore, the skipping of exon 2 in human CD33 (D2-CD33), resulting in ΔIgV-CD33 protein, corresponds to the skipping of exon 5 of non-human primate CD33. Monkey PBMC was collected at specified time points mentioned above. Total RNA was extracted, and RT-PCR was conducted using forward primer 5′-[…]-3′ and reverse primer 5′-[…]-3′ resulting in full length CD33 mRNA (FL-CD33) at 700 bp and Exon-5 skipped CD33 mRNA (D5-CD33) at 320 bp.

Human CD33 exon 2 [3] = details: U-87 MG glioblastoma cells; 48 hours; 10% FBS
Text: Cells. Differentiated THP-1 cells (human monocyte cells) and glioblastoma cells (human neuronal cells) were used in this study.
Targeting CD33 expression represents a treatment strategy for AD and cancer. Skipping of exon 2 of the gene expressing CD33 produces D2-CD33, a CD33 isoform that lacks a binding domain of sialic acid. In the absence of such a ligand binding domain, CD33 cannot inhibit microglial activation and phagocytosis of amyloid beta by microglial cells. Such a result is protective against AD.

CD33 = CD33 production by flow cytometry in THP1 cells; type: cell-based, human
Text: Such a result is protective against AD.
Detection of exon 2 skipping by RT-PCR and flow cytometry.

5′-GGCCAAACCTCGGCTTACCTGAAAT-3′ (all PMO monomers) [ENTR-0013]
cells positive for dystrophin in cardiac tissue (dystrophin): ≤ 5%
mRNA correction and dystrophin protein expression in the heart (Murine DMD exon 23): not in 20 mg/kg PMO treated MDX mice

5′-GGCCAAACCTCGGCTTACCTGAAAT-3′-C3NH-PEG4-BCN+Ac-NLS-Lys(CPP12)-PEG12-K(N3) (all PMO monomers) [ENTR-0165]
expression of dystrophin protein levels (Western Blot) (dystrophin): significantly corrected the expression of dystrophin protein levels
exon 23 skipping in Quad (Murine DMD exon 23; iv, 20 mg/kg): 38.5±2.5%
exon 23 skipping in diaphragm (Murine DMD exon 23; iv, 20 mg/kg): 30.2±2.8%
exon 23 skipping in heart (Murine DMD exon 23; iv, 20 mg/kg): 30.5±17.0%

5′-GGCCAAACCTCGGCTTACCTGAAAT-3′-C3NH-PEG4-BCN+Lys(N3)-miniPEG-NLS-ss-bA-bA-CPP12 (all PMO monomers) [ENTR-0164]
expression of dystrophin protein levels (Western Blot) (dystrophin): significantly corrected the expression of dystrophin protein levels
exon 23 skipping in Quad (Murine DMD exon 23; iv, 20 mg/kg): 59.5±2.2%
exon 23 skipping in diaphragm (Murine DMD exon 23; iv, 20 mg/kg): 61.0±13.7%
exon 23 skipping in heart (Murine DMD exon 23; iv, 20 mg/kg): 29.1±0.8%

5′-GGCCAAACCTCGGCTTACCTGAAAT-3′-click-K-PEG12-Lys(CPP12)-NLS-Ac (all PMO monomers) [ENTR-0201]
splicing correction and dystrophin protein in comparison to 20 mpk PMO (dystrophin): higher amount of both splicing correction and dystrophin protein in all four muscle tissues
duration of restored dystrophin protein (Western Blot) (dystrophin; iv, 20 mg/kg): sustained up to four weeks
dystrophin immunohistochemistry, skeletal muscle fibers (dystrophin; iv, 20 mg/kg): all the skeletal muscle fibers immunostained positive for dystrophin protein
intensity of dystrophin expression in heart muscle tissue (immunohistochemistry) (dystrophin; iv, 20 mg/kg): reaching near normal levels
amount of splicing correction at 10 mg/kg versus 5 mg/kg (Murine DMD exon 23): higher amount of splicing correction than treatment with 5 mg/kg
exon skipping activity across muscle groups (Murine DMD exon 23): high exon skipping activity across all the muscle groups
mRNA correction and dystrophin protein expression in the heart (Murine DMD exon 23): only observed in 10 mpk ENTR-201 treated MDX mice
performance of CPP12 with Nuclear Localization Sequence versus CPP12 alone (Murine DMD exon 23): outperformed CPP12 alone significantly
splicing correction of dystrophin in the heart and diaphragm (Murine DMD exon 23): also resulted in splicing correction of dystrophin in the heart and in the diaphragm
splicing correction of dystrophin mRNA and dystrophin protein levels (Murine DMD exon 23; 10 mg/kg): significant splicing correction of dystrophin mRNA and dystrophin protein levels
splicing correction of dystrophin in the heart and diaphragm (Murine DMD exon 23; 20 mg/kg): resulted in splicing correction of dystrophin in the heart and in the diaphragm
duration of enhanced exon skipping efficiency (Murine DMD exon 23; iv, 20 mg/kg): significant enhancements in exon skipping efficiency up to four weeks
exon 23 skipping in Quad (Murine DMD exon 23; iv, 20 mg/kg): 73.5±8.4%
exon 23 skipping in diaphragm (Murine DMD exon 23; iv, 20 mg/kg): 79.0±6.8%
exon 23 skipping in heart (Murine DMD exon 23; iv, 20 mg/kg): 60.5±17.2%
splicing correction of dystrophin (Murine DMD exon 23; iv, 20 mg/kg): resulted in splicing correction of dystrophin
creatine kinase expression in comparison to control (creatine kinase): decrease in creatine kinase expression in comparison to control
serum creatine kinase level (creatine kinase): normalized the serum creatine kinase level

5′-GTAACTGTATTTGGTACTTCC-3′ (Ac-NLS-Lys(CPP12)-PEG12-K(N3)- (all PMO monomers) [EEV-PMO-CD33-5]
dose dependence of exon 2 skipping (Human CD33 exon 2 [1]): dose-dependent skipping of exon 2 CD33
improvement of exon 2 skipping compared to unconjugated PMO-CD33 (Human CD33 exon 2 [1]): over 1000 fold
improvement of exon 2 skipping over PMO-CD33 with Endoporter transfection (Human CD33 exon 2 [1]): over 2 fold
skipping of exon 5 of CD33 gene in monkey PBMC [2]: resulted in skipping of exon 5 of CD33 gene
skipping of exon 2 CD33 (RT-PCR) (Human CD33 exon 2 [3]): dose-dependent skipping of exon 2 CD33

5′-GTAACTGTATTTGGTACTTCC-3′ + CPP12-PEG12-K(CPP12)-PEG12-TFP (all PMO monomers) [EEV-PMO-CD33-4]
production of CD33 (flow cytometry) in comparison to untreated (NT) cells (CD33): reduced production of CD33
dose dependence of exon 2 skipping (Human CD33 exon 2 [1]): dependent on the dose
efficacy in inducing human CD33 exon 2 skipping (PMO sequence optimization) (Human CD33 exon 2 [1]): superior efficacy
potency of bivalent versus monovalent EEV-PMO-CD33 in inducing CD33 exon 2 skipping (Human CD33 exon 2 [1]): more potent than EEV-PMO-CD33-2
skipping of exon 2 of CD33 (RT-PCR) (Human CD33 exon 2 [1]): resulted in skipping of exon 2 and the production of D2-CD33
